In brackets after ≈: the same amount, converted by molar mass.
Legend:
Anas platyrhynchos = conditions: oral, mortality
Apis mellifera = conditions: acute; duration: 24 hours; oral; unspecified; mortality
Colinus virginianus = conditions: acute, oral, mortality
Cyprinus carpio = conditions: acute; duration: 96 hours; mortality
Daphnia magna = conditions: chronic/long-term; duration: 21 days; mortality
Mus musculus = conditions: acute; oral; mortality
Neomysis kadiakensis = conditions: chronic/long-term; duration: 28 days; reproduction
Pimephales promelas = conditions: chronic/long-term; duration: 32 days; growth
Tagia sp. = conditions: acute; duration: 14 days; mortality
Aphidius rhopalosiphi = assay: LR50; higher = less toxic; conditions: acute; duration: 48 hours; mortality
Typhlodromus pyri = assay: LR50; higher = less toxic; conditions: acute; duration: 48 hours; mortality

SMILES	NOAEL (Rattus norvegicus; developmental, development) [mg/kg-day]	LD50 (Anas platyrhynchos; acute, unspecified) [mg/kg-day]	LC50 (Anas platyrhynchos; short-term, feed) [mg/kg-day]	LD50 (Apis mellifera) [µg/piece]	LC50 (Colinus virginianus; diet) [mg/kg-day]	LD50 (Colinus virginianus) [mg/kg-day]	LC50 (Cyprinus carpio) [µg/mL]	NOEC (Daphnia magna) [mg/L]	LD50 (Mus musculus) [mg/kg-day]	NOEC (Neomysis kadiakensis) [mg/L]	NOEC (Pimephales promelas) [mg/L]	NOAEL (Rattus norvegicus; chronic, duration: 2 years) [mg/kg-day]	NOAEL (Rattus norvegicus; reproduction developmental, reproduction) [mg/kg-day]	NOAEL (Rattus norvegicus; subchronic, duration: 90 days, oral) [mg/kg-day]	LC50 (Tagia sp.) [mg/kg]	LR50 (Aphidius rhopalosiphi) [g/ha]	LR50 (Typhlodromus pyri) [g/ha]
O=c1ccc(C(F)(F)F)c[nH]1 [5-(Trifluoromethyl)pyridin-2(1H)-one]	60	–	–	–	–	–	–	–	–	–	–	–	–	–	–	–	–
CCCCOC(=O)[C@@H](C)Oc1ccc(Oc2ccc(C(F)(F)F)cn2)cc1 [Fluazifop-P-butyl]	2	> 3960	> 942	> 200	> 1070	> 2000	1.31 (≈ 3.42 µM)	0.25	> 2000	0.0477	0.077	1	6.72	0.9	> 1000	177	5.6
CC(Oc1ccc(Oc2ccc(C(F)(F)F)cn2)cc1)C(=O)O (centres undefined) [Fluazifop]	–	–	–	–	–	–	–	–	–	–	–	1	–	–	–	–	–

— EPA's ToxValDB 9.5 (doi:10.2903/j.efsa.2012.2945)
